Drawing on patent publication US9725414B2, “Fungicidal N-bicycloalkyl and N-tricycloalkyl pyrazole-4-(thio)carboxamide derivatives” (priority 2011, dated 2017), this text covers Efficacy, logP and chromatographic logP for 37 compounds.

In data set [1] the test system is Pyrenophora teres. Put plainly: Example E: in vivo preventive test on Pyrenophora teres (barley), DMF/emulsifier preparation. The following applies: 500 ppm of active ingredient, evaluated 7-9 days after inoculation. On the procedure:
In Vivo Preventive Test on Pyrenophora teres (Barley) Solvent: 49 parts by weight of N,N-dimethylformamide Emulsifier: 1 part by weight of alkylaryl polyglycol ether To produce a suitable preparation of active compound, 1 part by weight of active compound is mixed with the stated amounts of solvent and emulsifier, and the concentrate is diluted with water to the desired concentration. To test for preventive activity, young plants are sprayed with the preparation of active compound at the stated rate of application. One day after this treatment, the plants are inoculated with an aqueous spore suspension of Pyrenophora teres. The plants remain for 48 hours in an incubation cabinet at 22° C. and a relative atmospheric humidity of 100%.

Data set [2] is described as follows: log P by HPLC on reversed-phase column (C 18), EEC Directive 79831 Annex V.A8. It is filed as physicochemical. On the procedure:
In table 1, the log P values were determined in accordance with EEC Directive 79831 Annex V.A8 by HPLC (High Performance Liquid Chromatography) on a reversed-phase column (C 18), using the method described below: Temperature: 40° C.; Mobile phases: 0.1% aqueous formic acid and acetonitrile; linear gradient from 10% acetonitrile to 90% acetonitrile. Calibration was carried out using unbranched alkan-2-ones (comprising 3 to 16 carbon atoms) with known log P values (determination of the log P values by the retention times using linear interpolation between two successive alkanones). lambda-max-values were determined using UV-spectra from 200 nm to 400 nm and the peak values of the chromatographic signals.

The test system of the next data set is Alternaria solani. Put plainly: Example C: in vivo preventive test on Alternaria solani (tomato). The following applies: 500 ppm of active ingredient, evaluated 7 days after inoculation. On the procedure:
In Vivo Preventive Test on Alternaria solani (Tomato) Solvent: 49 parts by weight of N,N-dimethylformamide Emulsifier: 1 part by weight of alkylarylpolyglycolether To produce a suitable preparation of active compound, 1 part by weight of active compound is mixed with the stated amounts of solvent and emulsifier, and the concentrate is diluted with water to the desired concentration. To test for preventive activity, young plants are sprayed with the preparation of active compound at the stated rate of application. One day after this treatment, the plants are inoculated with an aqueous spore suspension of Alternaria solani. The plants remain for one day in an incubation cabinet at approximately 22° C. and a relative atmospheric humidity of 100%. Then the plants are placed in an incubation cabinet at approximately 20° C. and a relative atmospheric humidity of 96%.

The test system of data set [3] is Pyrenophora teres. Put plainly: Example F: in vivo preventive test on Pyrenophora teres (barley), acetone/tween/DMSO preparation. The following applies: 500 ppm of active ingredient, barley, grading 14 days after contamination. On the procedure:
In Vivo Preventive Test on Pyrenophora teres (Barley) […] Barley plants (“Plaisant” variety), sown in starter cups on a 50/50 peat soil pozzolana substrate and grown at 22° C., are treated at the 1 leaf stage (10 cm height) by spraying with the active ingredient prepared as described above. Plants, used as controls, are treated with the mixture of acetone/tween/DMSO/water not containing the active material. After 24 hours, the plants are contaminated by spraying the leaves with an aqueous suspension of Pyrenophora teres spores (12 000 spores per mL). The spores are collected from a 12-day-old culture. […] Grading (% of efficacy) is carried out 14 days after the contamination, in comparison with the control plants.

For the next data set, the system named is Puccinia recondita. Put plainly: Example M: in vivo preventive test on Puccinia recondita (brown rust on wheat). The following applies: 500 ppm of active ingredient, grading 12 days after contamination. On the procedure:
In Vivo Preventive Test on Puccinia recondita (Brown Rust on Wheat) […] Wheat plants (“Scipion” variety), sown in starter cups on a 50/50 peat soil pozzolana substrate and grown at 22° C., are treated at the 1 leaf stage (10 cm height) by spraying with the active ingredient prepared as described above. Plants, used as controls, are treated with the mixture of acetone/tween/DMSO/water not containing the active material. After 24 hours, the plants are contaminated by spraying the leaves with an aqueous suspension of Puccinia recondite spores (100 000 spores per mL). The spores are collected from an infected plant and are suspended in water containing 2.5 mL/L of Tween 80 at 10%. […] Grading (% of efficacy) is carried out 12 days after the contamination, in comparison with the control plants.

The next data set has as its system Sphaerotheca fuliginea. Put plainly: Example B: in vivo preventive test on Sphaerotheca fuliginea (powdery mildew on cucurbits), gherkin plants. The following applies: 500 ppm of active ingredient, grading 12 days after contamination. On the procedure:
In Vivo Preventive Test on Sphaerotheca fuliginea (Powdery Mildew on Cucurbits) […] Gherkin plants (“Vert petit de Paris” variety), sown in starter cups on a 50/50 peat soil-pozzolana substrate and grown at 24° C. are treated at the Z11 cotyledon stage by spraying with the active ingredient prepared as described above. Plants, used as controls, are treated with the mixture of acetone/tween/DMSO/water not containing the active material. After 24 hours, the plants are contaminated by spraying the cotyledons with an aqueous suspension of Sphaerotheca fuliginea spores (100 000 spores per mL). The spores are collected from infected plants.

Another data set relates to Septoria tritici. Put plainly: Example I: in vivo preventive test on Septoria tritici (wheat), acetone/tween/DMSO preparation. The following applies: 500 ppm of active ingredient, grading 24 days after contamination. On the procedure:
In Vivo Preventive Test on Septoria tritici (Wheat) […] Wheat plants (“Scipion” variety), sown in starter cups on a 50/50 peat soil pozzolana substrate and grown at 22° C., are treated at the 1 leaf stage (10 cm height) by spraying with the active ingredient prepared as described above. Plants, used as controls, are treated with the mixture of acetone/tween/DMSO/water not containing the active material. After 24 hours, the plants are contaminated by spraying the leaves with an aqueous suspension of cryopreserved Septoria tritici spores (500 000 spores per mL). The contaminated wheat plants are incubated for 72 hours at 18° C. and at 100% relative humidity, and then for 21 days at 90% relative humidity. Grading (% of efficacy) is carried out 24 days after the contamination, in comparison with the control plants.

Where [4] appears, read: HPLC reversed-phase C 18, 40° C., 0.1% aqueous formic acid and acetonitrile gradient, several values = mixture of two or more isomers.

Read-outs that look alike come from different tables or passages of the source.

One may read the logP as the decadic logarithm of the partition coefficient of the neutral form, usually between octanol and water. A word on the chromatographic logP: it is a lipophilicity value derived from retention on a column. Higher therefore signals a more lipophilic compound.

For `Cn1nc(C(F)F)c(C(=S)N(C2CC2)C2CCC3CCCC3C2)c1F` (centres unmarked) [Example 24], in the data set with Pyrenophora teres [1], the Efficacy was 95%. Besides, the logP in data set [2] turned out to be 4.90.

In the case of `COc1nn(C)c(F)c1C(=O)N(CC12CC3CC(CC(C3)C1)C2)C1CC1` [Example 110], the logP in data set [2] is on record as 4.04. `Cn1nc(C(F)F)c(C(=O)NC2CCC3CCCCC3C2)c1F` (mixture of isomers) [Example 35]: the Efficacy with Alternaria solani came to 80%. As to `Cc1nn(C)c(F)c1C(=O)NC1CCCC2C1C(C)CC2(C)C` (centres unmarked) [Example 15], the Efficacy is 100% in the data set with Pyrenophora teres [1] and 89% in the data set on Alternaria solani. Further, in data set [2], the logP came to 3.76. As for `Cn1cc(C(=O)NC23CC4CC(CC(C4)C2)C3)c(C(F)F)n1` [Example 55], the logP in data set [2] was found to be 3.06.

On to `Cn1nc(C(F)F)c(C(=O)NC2CCC3CCCCC3C2)c1Cl` (mixture of isomers) [Example 34], for which the Efficacy with Pyrenophora teres [1] came to 70%; with Alternaria solani it was 95%. For `CC1C(CN(C(=O)c2c(C(F)F)nn(C)c2Cl)C2CC2)CC2CC1C2(C)C` (centres unmarked) [Example 79], the Efficacy with Pyrenophora teres [1] was determined as 100%; in the data set on Alternaria solani, 94%. In data set [2], this compound yielded a log partition coefficient (logP) of 4.82.

Consider `Cn1nc(C(F)F)c(C(=O)NC2C3(C)CCC(C3)C2(C)C)c1Cl` (centres unmarked) [Example 39], for which, in data set [2], the log partition coefficient (logP) turned out to be 3.92. `Cn1cc(C(=O)NC2(C#N)CC3CCC2C3)c(C(F)F)n1` (centres unmarked) [Example 44] returned a logP in data set [2] of 1.97.

`Cn1cc(C(=O)N(CC23CC4CC(CC(C4)C2)C3)C2CC2)c(C(F)F)n1` [Example 111]: the log partition coefficient (logP) in data set [2] came out at 3.92. Turning to `Cn1nc(C(F)F)c(C(=O)N(CC2CCC3CCCC32)C2CC2)c1F` (centres unmarked) [Example 58], the Efficacy in the data set with Pyrenophora teres [3] was determined as 100%; in the data set with Puccinia recondita it was 98%. This compound displayed a logP in data set [2] of 3.96. For `CC(C)N(C(=O)c1c(C(F)F)nn(C)c1Cl)C1CCCC2CCCCC21` (centres unmarked) [Example 26], the logP in data set [2] is given as 4.83.

Turning to `CC(NC(=O)c1c(C(F)F)nn(C)c1Cl)C12CC3CC(CC(C3)C1)C2` (centres unmarked) [Example 106], the Efficacy in the data set on Pyrenophora teres [1] is 90%; in the data set on Alternaria solani it was 100%. This compound also had a logP in data set [2] of 4.27.

In data set [2], `Cn1cc(C(=O)NC2C3(C)CCC(C3)C2(C)C)c(C(F)F)n1` (centres unmarked) [Example 41] had a logP of 3.35. With `CC(NC1CC1)C12CC3CC(CC(C3)C1)C2` (centres unmarked) [N-[1-(adamantan-1-yl)ethyl]cyclopropanamine], the chromatographic logP in data set [2] came out at 5.82. In the case of `Cn1nc(C(F)F)c(C(=O)NC2CCCC3CCCCC32)c1Cl` (mixture of isomers) [Example 30], in the data set with Sphaerotheca fuliginea, the Efficacy is on record as 100%. Regarding `CC(NC(=O)c1c(C(F)F)nn(C)c1F)C12CC3CC(CC(C3)C1)C2` (centres unmarked) [Example 107], the Efficacy is listed as 80% in the data set on Pyrenophora teres [1] and 95% in the data set on Alternaria solani. In addition, in data set [2], the logP is given as 4.03. In the same order, the values of `CC1C(CNC(=O)c2c(C(F)F)nn(C)c2Cl)CC2CC1C2(C)C` (centres unmarked) [Example 80] are 100%, 100% and 4.25. As for `CC(C)N(C(=O)c1c(C(F)F)nn(C)c1F)C1CCCC2CCCCC21` (centres unmarked) [Example 27], the log partition coefficient (logP) in data set [2] was found to be 4.58. As to `CC1CC1N(C(=O)c1c(C(F)(F)F)nn(C)c1F)C(C)C1CC2CCC1C2` (centres unmarked) [Example 112], in data set [2], the lipophilicity (logP) is recorded as 4.92. In the case of `Cn1nc(C(F)F)c(C(=O)N(CC23CC4CC(CC(C4)C2)C3)C2CC2)c1Cl` [Example 108], in data set [2], the logP was 4.68. The compound `CC1CC(C)(C)C2CCCC(NC(=O)c3c(C(F)F)nn(C)c3Cl)C12` (centres unmarked) [Example 16] displayed an Efficacy in the data set on Pyrenophora teres [1] of 100%. The same compound showed a logP in data set [2] of 4.49. As for `Cn1nc(C(F)F)c(C(=O)NCC2CCC3CC2C3(C)C)c1F` (centres unmarked) [Example 84], the Efficacy with Pyrenophora teres [1] was 100%; in the data set on Alternaria solani, 95%. The compound also came in with a logP in data set [2] of 3.62. In the data set with Alternaria solani, `Cn1nc(C(F)F)c(C(=O)NCC23CC4CC(CC(C4)C2)C3)c1F` [Example 89] had an Efficacy of 95%. For the same compound, the lipophilicity (logP) in data set [2] (setting [4]) was found to be 3.67.

On to `CC1CC(C)(C)C2CCCC(NC(=O)c3cn(C)nc3C(F)(F)F)C12` (centres unmarked) [Example 17], for which the Efficacy worked out at 95% in the data set on Pyrenophora teres [1] and 94% with Alternaria solani. Besides, in data set [2], the logP turned out to be 4.00. On to `Cn1nc(C(F)F)c(C(=O)NCC23CC4CC(CC(C4)C2)C3)c1Cl` [Example 88], for which the Efficacy in the data set with Alternaria solani was 100%. In addition, the logP in data set [2] (setting [4]) is reported as 3.89.

Compound `Cn1cc(C(=O)NC2CCCC3CCCCC32)c(C(F)F)n1` (mixture of isomers) [Example 29] returned an Efficacy in the data set with Sphaerotheca fuliginea of 95%. `Cn1nc(C(F)F)c(C(=O)NC2(C#N)CC3CCC2C3)c1Cl` (centres unmarked) [Example 43] came in with a lipophilicity (logP) in data set [2] of 2.34. On to `Cn1nc(C(F)F)c(C(=O)NC2C3(C)CCC(C3)C2(C)C)c1F` (centres unmarked) [Example 40], for which the logP in data set [2] was 3.70.

`CC1C(CNC(=O)c2c(C(F)F)nn(C)c2F)CC2CC1C2(C)C` (centres unmarked) [Example 81]: the Efficacy in the data set with Pyrenophora teres [1] and with Alternaria solani was 100% throughout. In data set [2], the logP is 3.99. For the compound `Cn1nc(C(F)F)c(C(=S)NC2CCCC3CCCCC32)c1F` (centres unmarked) [Example 28], the results for the Efficacy with Pyrenophora teres [1] and in the data set with Alternaria solani were 95% and 70%, respectively. The compound further returned a logP in data set [2] of 4.41.

For the compound `Cn1cc(C(=O)NCC23CC4CC(CC(C4)C2)C3)c(C(F)F)n1` [Example 87], the Efficacy in the data set with Sphaerotheca fuliginea is given as 79%; in the data set with Puccinia recondita it was 75%. Also, the logP in data set [2] came to 3.29.

Turning to `Cn1cc(C(=O)N(C2CC2)C2CCC3CCCCC3C2)c(C(F)F)n1` (mixture of isomers) [Example 36], the Efficacy in the data set with Pyrenophora teres [1] is 100%; in the data set with Alternaria solani it was 95%.

`Cn1cc(C(=O)N(C2CC2)C2CCCC3CCCCC32)c(C(F)F)n1` (mixture of isomers) [Example 33]: the values for the Efficacy in the data set with Septoria tritici, in the data set with Sphaerotheca fuliginea and with Pyrenophora teres [3] were 92%, 94% and 100%, respectively. Consider `Cn1nc(C(F)F)c(C(=O)NC2(C#N)CC3CCC2C3)c1F` (centres unmarked) [Example 45], for which the logP in data set [2] is listed as 2.16. As for `Cn1nc(C(F)F)c(C(=O)N(C2CC2)C2CCC3CCCCC3C2)c1Cl` (mixture of isomers) [Example 37], the values for the Efficacy with Pyrenophora teres [1] and in the data set with Alternaria solani were 100% and 95%, respectively. In data set [2], `Cn1nc(C(F)F)c(C(=O)N(CC23CC4CC(CC(C4)C2)C3)C2CC2)c1F` [Example 109] showed a logP of 4.49.
